Results on three molecules are retold here after US20090203661A1, “Betulinic acid, derivatives and analogs thereof and uses therefor” (priority 2006, published 2009).

One experiment has as its system SW480 cells. The experiment can be described thus: KLF4 mRNA (RT-PCR) in SW480 cells. Format: cell-based, human. The protocol:
SW480 and HT29 colon cancer cells were treated either with vehicle (DMSO) or indicated compounds and after 24 hr total RNA was extracted using RNeasy Mini kit (Qiagen, Inc., Valencia, Calif.). RNA concentration was measured by UV 260:280 nm absorption ratio and 2 μg RNA was used to synthesize cDNA using Reverse Transcription System (Promega). PCR conditions were as follows: initial denaturation at 94° C. (1 min) followed by 28 cycles of denaturation for 30 s at 94° C., annealing for 60 s at 55° C. and extension at 72° C. for 60 s and a final extension step at 72° C. for 5 min. The mRNA levels were normalized using GAPDH as an internal housekeeping gene. Primers obtained from IDT and used for amplification are as follows: KLF4 (sense 5′-CTATGGCAGGGAGTCCGCTCC-3′ (SEQ ID NO: 1); antisense 5′-ATGACCGACGGGCTGCCGTAC-3′ (SEQ ID NO: 2)) and GAPDH (sense 5′-ACGGATTTGGTCGTATTGGGCG-3′ (SEQ ID NO: 3); antisense 5′-CTCCTGGAAGATGGTGATGG-3′ (SEQ ID NO: 4). PCR products were electrophoresed on 1% agarose gels containing ethidium bromide and visualized under UV transillumination.

In the next experiment the test system is HT-29 cells. Description: Caveolin-1 expression (Western blot) in HT-29 cells. Format: cell-based, human. Particulars: for caveolin-1 induction: HT-29, 72 hr; for effect of T007 on induced caveolin-1 response: HT-29, cotreatment with T007. As for the experimental part: SW480, HT-29, HCT-15 and Panc-28 (3×10^5) colon cancer cells were seeded in 6-well tissue culture plates in DMEM/Ham's F-12 medium containing 2.5% charcoal-stripped FBS. Protein is extracted from the cells treated either with vehicle or indicated compounds suspended for 24 hr except for caveolin-1 protein which was done for 72 hr. Samples were extracted in high salt buffer [50 mmol/L HEPES, 500 mmol/L NaCl, 1.5 mmol/L MgCl2, 1 mmol/L EGTA, 10% glycerol, and 1% Triton X-100 (pH 7.5), and 5 μL/mL protease inhibitor cocktail (Sigma-Aldrich)]. Samples were incubated at 100° C. for 2 min, separated on either 10% or 12% SDS-PAGE gels and then transferred to polyvinylidene difluoride membrane (PVDF; Bio-Rad, Hercules, Calif.). The PVDF membrane was blocked in 5% TBST-Blotto (10 mM Tris HCl, 150 mM NaCl, pH 8.0, 0.05% Triton X-100, and 5% nonfat dry milk) for about 30 min and was then incubated in fresh 5% TBST-Blotto with 1:1000 for caveolin-1 (Santa Cruz Biotechnology, Santa Cruz, Calif.), 1:1000 for p21 (BD Pharmingen, Frank lakes, NJ) and 1:10000 for β-actin (Sigma) primary antibody overnight with gentle shaking at 4° C. After washing with TBST for 10 min, the membrane was incubated with respective secondary antibody (1:5000) (Santa cruz, Calif.) in 5% TBST-Blotto for 3 hr. The membrane is then washed with TBST for 10 min, incubated with chemiluminiscence reagent from Perkin Elmer for one min and then exposed to Kodak X-OMAT AR autoradiography film (Eastman Kodak, Rochester, N.Y.).
In general terms: Immunoblotting shows a protein as a band on a membrane.

Another experiment concerns Panc28 cells. Description: Apoptosis (PARP cleavage, Western blot) in Panc28 cells. Format: cell-based, human. Particulars: Panc28, 24 hr. The protocol:
Induction of KLF4 in HT-29 (FIG. 12A) and SW480 (FIG. 12B) cells. Cells were treated with different concentrations of CDODA isomers or T007 alone or in combination, and KLF4 mRNA levels were determined by real time PCR. […] KLF4 mRNA levels were not induced in SW480 cells by BA derivatives. FIGS. 12C-12D show induction of apoptosis. Panc28 (FIG. 12C) and SW480 (FIG. 12D) cells were treated for 24 hr with betulinic acid and related compounds and whole cell lysates were examined by Western blot analysis.
SW480, HT-29, HCT-15 and Panc-28 (3×10^5) colon cancer cells were seeded in 6-well tissue culture plates in DMEM/Ham's F-12 medium containing 2.5% charcoal-stripped FBS. Protein is extracted from the cells treated either with vehicle or indicated compounds suspended for 24 hr except for caveolin-1 protein which was done for 72 hr. Samples were extracted in high salt buffer [50 mmol/L HEPES, 500 mmol/L NaCl, 1.5 mmol/L MgCl2, 1 mmol/L EGTA, 10% glycerol, and 1% Triton X-100 (pH 7.5), and 5 μL/mL protease inhibitor cocktail (Sigma-Aldrich)]. Samples were incubated at 100° C. for 2 min, separated on either 10% or 12% SDS-PAGE gels and then transferred to polyvinylidene difluoride membrane (PVDF; Bio-Rad, Hercules, Calif.). […]

In experiment [1] the test system is LNCaP prostate cancer cells. Description: Cell proliferation (cell counting), LNCaP prostate cancer cells. Format: cell-based. The settings on record: Homo sapiens, 144 h, 6 days, read-out: 6-day IC50 values for growth inhibition. The protocol:
(§1) Human carcinoma cell lines LNCaP (prostate) and SK-MEL2 (melanoma) were obtained from American Type Culture Collection (Manassas, Va.). Cell lines were maintained in RPMI 1640 (Sigma) supplemented with 0.22% sodium bicarbonate, 0.011% sodium pyruvate, 0.45% glucose, 0.24% HEPES, 10% FBS, and 10 mL/L of 100× Antibiotic Antimycotic solution (Sigma). Cells were maintained at 37° C. in the presence of 5% CO2.
(§2) Prostate and melanoma cancer cells (2×10^4 per well) were plated in 12-well plates and allowed to attach for 24 hr. The medium was then changed to DMEM:Ham's F-12 medium containing 2.5% charcoal-stripped FBS and either vehicle (DMSO) or different concentrations of the compound were added. […] Each experiment was done in triplicate and results are expressed as means±SE for each set of experiments.

In a further experiment the test system is SK-MEL2 melanoma cells. The experiment can be described thus: Cell proliferation (cell counting), SK-MEL2 melanoma cells. Particulars: Homo sapiens, SK-MEL-2, 144 h; SK-MEL2, 6 days; read-out: 6-day IC50 values for growth inhibition. Format: cell-based. As for the experimental part: as §1, §2
For the next experiment, the system named is Panc-28 cells. The experiment can be described thus: Cell proliferation assay, Panc-28 cells. Format: cell-based. The settings on record: Homo sapiens, read-out: IC50 values, inhibition of growth. The protocol:
SW480, HT-29 and HCT-15 human colon cancer cells were provided by Dr. Stan Hamilton (M. D. Anderson Cancer Center (Houston, Tex.). Panc-28 human pancreatic cancer cells and 3T3-L1 pre-adipocytes were obtained from American Type Culture Collection (Manassas, Va.). SW480, HT-29 and Panc-28 cells were maintained in Dulbecco's modified/Ham's F-12 (Sigma-Aldrich, St Louis, Mo.) with phenol red supplemented with 0.22% sodium bicarbonate, 0.011% sodium pyruvate, 5% fetal bovine serum, and 10 mL/L 100× antibiotic antimycotic solution (Sigma). HCT-15 cells were maintained in RPMI 1640 (Sigma) supplemented with 0.22% sodium bicarbonate, 0.011% sodium pyruvate, 0.45% glucose, 0.24% HEPES, 10% fetal bovine serum, and 10 mL/L of 100× antibiotic antimycotic solution (Sigma). Cells were maintained at 37° C. in the presence of 5% CO2.
This assay is performed in 12-well tissue culture plates at the concentration of 2×10^4 cells per well, using DMEM/Ham's F-12 media containing 2.5% charcoal stripped FBS. The cells were counted on the initial day using a Z1 cell counter (Beckman Coulter, Fullerton, Calif.) and then were treated either with vehicle (DMSO) or the indicated triterpenoid compounds, each sample in triplicate. Every 48 hr, fresh medium was added along with the indicated compounds. […] The results are expressed as means±S.E for each set of triplicate.

Consider `COC(=O)C12CCC(C(C)C)C1C1CCC3C4(C)C=C(C#N)C(=O)C(C)(C)C4CCC3(C)C1(C)CC2` (stereo not shown) [CN-BA-Me, Methyl 2-cyano-lup-1-en-3-oxo-20-oate], for which the KLF4 expression entry with SW480 cells is on record as “did not induce KLF4 expression”. Also, in the experiment on HT-29 cells, the caveolin-1 induction result is given as “induce caveolin-1” and the “effect of T007 on induced caveolin-1 response” value is reported as “inhibition of the induced caveolin-1 response”.

In the case of `CC(C)C1CCC2(C(=O)O)CCC3(C)C(CCC4C5(C)C=C(C#N)C(=O)C(C)(C)C5CCC43C)C12` (stereo not shown) [CN-BA], the KLF4 expression entry with SW480 cells is given as “did not induce KLF4 expression”. For the same molecule, in the experiment with Panc28 cells, the “caspase-dependent PARP cleavage” value is given as “induced caspase-dependent PARP cleavage”. In the experiment on HT-29 cells, the caveolin-1 induction result is on record as “induce caveolin-1” and the “effect of T007 on induced caveolin-1 response” value was “inhibition of the induced caveolin-1 response”.

What is called IC50 is the concentration that inhibits the measured activity by half. With `C=C(C)[C@@H]1CC[C@]2(C(=O)O)CC[C@]3(C)[C@H](CC[C@@H]4[C@@]5(C)CC[C@H](O)C(C)(C)[C@@H]5CC[C@]43C)[C@@H]12` [betulinic acid, Betulinic acid], the results for the IC50 (in experiment [1]; with SK-MEL2 melanoma cells; in the experiment on Panc-28 cells) were 1 to 5 µM, 5 to 10 µM and 1 to 5 µM, respectively.
